Consider 1 compound from patent US11484529B2, “Desmethylanethole trithione derivatives for the treatment of diseases linked to mitochondrial reactive oxygen species (ROS) production” (OP2 Drugs, priority 2017, dated 2022).

One series concerns the target T1, site IIIQO (Rattus norvegicus, UniProt P00159+P20788).
T1 construct: from tissue; host or cells: mitochondria isolated from rat heart
In words: Mitochondrial ROS/H2O2 production (Amplex Red/HRP) after rotenone, antimycin A, myxothiazol. The series is classed as biochemical. The settings on record: AOL 5 to 80 μM. The method, then:
Rates of ROS/H2O2 production from heart mitochondria were assessed through the oxidation of the colorless, non-fluorescent indicator Amplex Red in the presence of exogenous horseradish peroxidase (HRP, EC 1.11.1.7, Sigma). H2O2 reacts with Amplex Red in a 1:1 stoichiometry, yielding the fluorescent compound resorufin (excitation: 560 nm; emission: 585 nm) which is stable once formed. Fluorescence was measured continuously with a spectro-fluorometer equipped with temperature control and stirring (SAFAS Xenius, Monaco). Isolated mitochondria (0.1 mg/mL) were incubated in the same experimental buffer than previously, supplemented with 15 μM Amplex Red and 10 μg/mL HRP. Glutamate (5 mM)/malate (2.5 mM) together with succinate (5 mM) were used as complex I and complex II substrates, respectively. Experiments were conducted under non-phosphorylating conditions in the presence of 15 μM atractyloside, i.e., under state IV conditions where mitochondrial membrane is maximal. […]
Rates of ROS/H2O2 production from heart mitochondria were assessed through the oxidation of the colorless, non-fluorescent indicator Amplex Red in the presence of exogenous horseradish peroxidase (HRP, EC 1.11.1.7, Sigma). […] Fluorescence was measured continuously with a spectro-fluorometer equipped with temperature control and stirring (SAFAS Xenius, Monaco). […]

Series [1] has as its system pulmonary arterial smooth muscle cells (PASMC). Put plainly: PASMC proliferation (BrdU incorporation). The series is classed as cell-based. The settings on record: AOL 10, 20, 60 or 100 μM, 24 hours. The procedure: Detection of pulmonary arterial smooth muscle cells (PASMC) proliferation was assayed by using a colorimetric immunoassay kit (Roche Applied Science, Indianapolis, Ind., USA) based on the measurement of 5-bromo-2′-deoxy-uridine (BrdU) incorporation during DNA synthesis.
Isolated PASMC were seeded in culture medium supplemented with 10% fetal calf serum (FCS) at a density of 5·10^3 cells/well/100 μL in a 96-well culture plate. The culture plate was placed in a humidified incubator at 37° C. under 5% CO2 in air. After 48 hours, cells were subjected to 48 hours of growth arrest in serum-free culture medium supplemented with 1% insulin-transferrin-selenium. At the end of this period, PASMC were incubated for 24 hours in culture medium containing either: • 0.2% FCS (control condition); • 0.2% FCS+10, 20, 60 or 100 μM AOL; • 0.2% FCS+100 μM 5HT (serotonin); • 0.2% FCS+100 μM 5HT+10, 20, 60 or 100 μM AOL; • 10% FCS; • 10% FCS+10, 20, 60 or 100 μM AOL.
Each condition was tested in triplicate. 10 μL of BrdU (100 μM) was then added to the media and cells were incubated for an additional 2 hours at 37° C. […] Newly synthesized BrdU DNA was determined by measuring absorbance of the samples in an ELISA reader (Spectrostar/nano; BMG Labtech, Champigny-sur-Marne, France) at a wavelength of 380 nm with a reference wavelength of 490 nm.
In general terms: Incorporation of labelled thymidine or its analogues reports DNA synthesis.

For series [2] the following is noted: cited from earlier work.

T1 sequence (P00159 whole entry): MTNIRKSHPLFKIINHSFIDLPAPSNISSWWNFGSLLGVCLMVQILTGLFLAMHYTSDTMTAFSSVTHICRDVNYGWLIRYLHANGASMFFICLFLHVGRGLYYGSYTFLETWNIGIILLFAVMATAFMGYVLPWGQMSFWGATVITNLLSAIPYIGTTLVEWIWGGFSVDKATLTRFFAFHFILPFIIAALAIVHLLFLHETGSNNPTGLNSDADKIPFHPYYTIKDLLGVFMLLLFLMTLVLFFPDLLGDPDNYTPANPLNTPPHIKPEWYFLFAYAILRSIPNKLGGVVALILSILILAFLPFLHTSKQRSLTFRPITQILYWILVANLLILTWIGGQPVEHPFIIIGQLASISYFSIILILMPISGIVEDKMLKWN
T1 sequence (P20788 79-274 limits assumed): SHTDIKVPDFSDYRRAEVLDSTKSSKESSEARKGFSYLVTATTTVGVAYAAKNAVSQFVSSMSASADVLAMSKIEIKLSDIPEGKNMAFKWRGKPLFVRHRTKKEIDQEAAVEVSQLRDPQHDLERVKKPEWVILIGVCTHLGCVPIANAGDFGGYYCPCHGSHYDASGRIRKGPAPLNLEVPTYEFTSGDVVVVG
T1 sequence (P20788 1-78 partner limits assumed): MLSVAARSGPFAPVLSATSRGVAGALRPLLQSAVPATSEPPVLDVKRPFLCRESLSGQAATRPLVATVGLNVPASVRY
T1 sequence (Q68FY0 35-480 partner): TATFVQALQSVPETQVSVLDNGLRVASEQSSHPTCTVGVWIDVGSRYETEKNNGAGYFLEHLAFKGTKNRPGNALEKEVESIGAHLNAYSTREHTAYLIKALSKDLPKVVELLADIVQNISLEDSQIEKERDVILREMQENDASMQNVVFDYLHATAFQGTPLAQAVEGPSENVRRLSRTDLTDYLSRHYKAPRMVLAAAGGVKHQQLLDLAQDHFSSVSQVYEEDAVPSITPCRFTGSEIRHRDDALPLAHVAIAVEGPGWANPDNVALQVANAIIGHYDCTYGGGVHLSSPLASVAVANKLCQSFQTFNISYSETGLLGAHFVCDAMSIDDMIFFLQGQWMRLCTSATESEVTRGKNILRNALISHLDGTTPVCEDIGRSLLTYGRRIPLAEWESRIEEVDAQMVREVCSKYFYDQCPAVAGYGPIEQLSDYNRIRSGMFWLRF
T1 sequence (P32551 15-452 partner): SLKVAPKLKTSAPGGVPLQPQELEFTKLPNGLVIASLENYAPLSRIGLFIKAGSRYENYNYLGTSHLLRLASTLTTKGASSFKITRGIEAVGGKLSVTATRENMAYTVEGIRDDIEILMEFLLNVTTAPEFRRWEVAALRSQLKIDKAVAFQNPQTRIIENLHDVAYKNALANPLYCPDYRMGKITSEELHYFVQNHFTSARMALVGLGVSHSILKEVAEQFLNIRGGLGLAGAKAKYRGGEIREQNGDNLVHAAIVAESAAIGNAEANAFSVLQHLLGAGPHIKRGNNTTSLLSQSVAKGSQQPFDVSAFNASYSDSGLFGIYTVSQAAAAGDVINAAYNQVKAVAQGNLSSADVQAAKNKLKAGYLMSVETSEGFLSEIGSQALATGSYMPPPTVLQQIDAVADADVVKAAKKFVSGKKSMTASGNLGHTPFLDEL

For `COc1ccc(-c2cc(=S)ss2)cc1` [AOL, 5-(4-methoxyphenyl)-3H-1,2-dithiole-3-thione], the “effect on ROS/H2O2 production under the other conditions” value on site IIIQO was “no statistical differences were observed”. In addition, in series [1], the “PASMC proliferation in presence of 0.2% FCS and 100 μM 5HT” value is “successfully inhibited the proliferation”; the “PASMC proliferation induced by 10% FCS” value was “successfully inhibited the proliferation”. For the same compound, the bioavailability result in series [2] is “known to be very short”.
